# Results: patent publication US10092491B2, “Skin renewal enhancer” (priority 2015, dated 2018)
# Test: Solubilization in anhydrous polar solvents
# Type: physicochemical
# Settings: 25° C.
# Protocol: It was unexpectedly discovered that both hydroxy acids and urea can be fully solubilized in anhydrous solvent at concentrations suitable for use as a chemical peel. Illustratively, for a peeling activity in the provided compositions and systems the hydroxy acid and urea must be present at a concentration of 8-10% or greater, with much greater efficacy at 10% or greater. It was discovered that anhydrous polar solvents can fully solubilize (i.e. no observable haze at 25° C.) both hydroxy acids and urea up to concentrations of 25%, thereby allowing significant efficacy when applied to the skin. The use of anhydrous glycerin (as one example) alone or optionally with or substituted by other anhydrous polar solvents (e.g. anhydrous polar solvents such as propylene glycol, butylene glycol, dimethylisosorbide, etc.) allows for the elimination of water and the prevention of the “burn” experienced in prior systems.
smiles,measurement,value
NC(N)=O [urea],concentration fully solubilized (no observable haze),≤ 25%
